In US8742078B2, “Antibacterial 4,6-substituted 6′, 6″ and 1 modified aminoglycoside analogs” (Isis Pharmaceuticals, Inc., priority 2008, dated 2014):

Experiments:
P. aeruginosa 29248 = assay: MIC assay, P. aeruginosa 29248; assay type: cell-based; set-up: unit not given here; conditions: range: complete growth inhibition at higher, viable cells at lower concentration; 20-24 hours at 37° C.
Experimental: (§1) The MIC assays are carried out in 150 μL volume in duplicate in 96-well clear flat-bottom plates. The bacterial suspension from an overnight culture growth in appropriate medium is added to a solution of test compound in 2.5% DMSO in water. Final bacterial inoculum is approximately 10^2-10^3 CFU/well. The percentage growth of the bacteria in test wells relative to that observed for control wells containing no compound is determined by measuring absorbance at 595 nm (A595) after 20-24 hours at 37° C. The MIC is determined as a range of concentration where complete inhibition of growth is observed at the higher concentration and bacterial cells are viable at the lower concentration. Both ampicillin and tetracycline are used as antibiotic positive controls in each screening assay. Both ampicillin and tetracycline are used as antibiotic-positive controls in each screening assay for S. pyogenes, E. coli imp-, E. coli, S. aureus, E. faecalis, K. pneumoniae and P. vulgaris. Ciprofloxacin is used as an antibiotic positive control in each screening assay for P. aeruginosa.

P. aeruginosa 27853 = assay: MIC assay, P. aeruginosa 27853; assay type: cell-based; set-up: unit not given here; conditions: range: complete growth inhibition at higher, viable cells at lower concentration; 20-24 hours at 37° C.
Experimental: as §1

Row | Compound | MIC P aeruginosa 29248 (P. aeruginosa 29248) | MIC P aeruginosa 27853 (P. aeruginosa 27853)
1 | 6″-deoxy-6″-phenethylamino-N-1-(4-amino-2-S-hydroxybutyryl)kanamycin A [IBIS00561977] | 5-10 | 10-20
2 | NC[C@H]1O[C@H](O[C@H]2[C@H](O)[C@@H](O[C@H]3O[C@H](CO)[C@@H](O)[C@H](N)[C@H]3O)[C@H](N)C[C@@H]2N)[C@H](O)[C@@H](O)[C@@H]1O [IBIS00262400, Kanamycin A, reference compound] | 2.5-5 | 1.25-2.5
3 | NCC[C@H](O)C(=O)N[C@@H]1C[C@H](N)[C@@H](O[C@H]2O[C@H](CN)[C@@H](O)[C@H](O)[C@H]2O)[C@H](O)[C@H]1O[C@H]1O[C@H](CO)[C@@H](O)[C@H](N)[C@H]1O [IBIS00404962, Amikacin, reference compound] | <0.625 | 1.25-2.5
4 | NCC[C@H](O)C(=O)N[C@@H]1C[C@H](N)[C@@H](O[C@H]2O[C@H](CNCCc3ccccc3)[C@@H](O)[C@H](O)[C@H]2O)[C@H](O)[C@H]1O[C@H]1O[C@H](CO)[C@@H](O)[C@H](N)[C@H]1O [IBIS00561960, 6′-N-Phenethylamino-N-1-(4-amino-2-S-hydroxybutyryl)kanamycin A] | 5-10 | 2.5-5.0
5 | CN(C)CC1OC(OC2C(N)CC(NC(=O)[C@@H](O)CCN)C(OC3OC(CO)C(O)C(N)C3O)C2O)C(O)C(O)C1O (stereo partly shown) [IBIS00561961, 6′-N,N-Dimethyl-N-1-(4-amino-2-S-hydroxybutyryl)kanamycin A] | >40 | 10-20
6 | NCC[C@H](O)C(=O)N[C@@H]1C[C@H](N)[C@@H](O[C@H]2O[C@H](CNCCCc3ccccc3)[C@@H](O)[C@H](O)[C@H]2O)[C@H](O)[C@H]1O[C@H]1O[C@H](CO)[C@@H](O)[C@H](N)[C@H]1O [IBIS00561962, 6′-N-Phenpropylamino-N-1-(4-amino-2-S-hydroxybutyryl)kanamycin A] | 2.5-5.0 | 2.5-5.0
7 | CC(C)CNCC1OC(OC2C(N)CC(NC(=O)[C@@H](O)CCN)C(OC3OC(CO)C(O)C(N)C3O)C2O)C(O)C(O)C1O (stereo partly shown) [IBIS00561963, 6′-N-Isobutyl-N-1-(4-amino-2-S-hydroxybutyryl)kanamycin A] | >40 | 10-20
8 | CNC[C@H]1O[C@H](O[C@@H]2[C@@H](O)[C@H](O[C@H]3O[C@H](CN)[C@@H](O)[C@H](O)[C@H]3O)[C@@H](N)C[C@H]2NC(=O)[C@@H](O)CCN)[C@H](O)[C@@H](N)[C@@H]1O [IBIS00561974, 6″-deoxy-6″-methylamino-N-1-(4-amino-2-S-hydroxybutyryl)kanamycin A] | 0.625-1.25 | 2.5-5.0
9 | CC(C)NC[C@H]1O[C@H](O[C@@H]2[C@@H](O)[C@H](O[C@H]3O[C@H](CN)[C@@H](O)[C@H](O)[C@H]3O)[C@@H](N)C[C@H]2NC(=O)[C@@H](O)CCN)[C@H](O)[C@@H](N)[C@@H]1O [IBIS00561975, 6″-deoxy-6″-isopropylamino-N-1-(4-amino-2-S-hydroxybutyryl)kanamycin A] | 10-20 | 10-20
10 | NCC[C@H](O)C(=O)NC1CC(N)C(OC2OC(CN)C(O)C(O)C2O)C(O)C1OC1OC(CNC2CCCCC2)C(O)C(N)C1O (stereo partly shown) [IBIS00561976, 6″-deoxy-6″-cyclohexylamino-N-1-(4-amino-2-S-hydroxybutyryl)kanamycin A] | 5-10 | >40
11 | [N-]=[N+]=NC[C@H]1O[C@H](O[C@@H]2[C@@H](O)[C@H](O[C@H]3O[C@H](CN)[C@@H](O)[C@H](O)[C@H]3O)[C@@H](N)C[C@H]2NC(=O)[C@@H](O)CCN)[C@H](O)[C@@H](N)[C@@H]1O [IBIS00561980, 6″-deoxy-6″-azido-N-1-(4-amino-2-S-hydroxybutyryl)kanamycin A] | 0.625-1.25 | 2.5-5.0
12 | CCCNC[C@H]1O[C@H](O[C@@H]2[C@@H](O)[C@H](O[C@H]3O[C@H](CN)[C@@H](O)[C@H](O)[C@H]3O)[C@@H](N)C[C@H]2NC(=O)[C@@H](O)CCN)[C@H](O)[C@@H](N)[C@@H]1O [IBIS00561982, 6″-deoxy-6″-propylamino-N-1-(4-amino-2-S-hydroxybutyryl)kanamycin A] | 2.5-5.0 | 5.0-10.0
13 | CN(C)CCNCC1OC(OC2C(NC(=O)C(O)CCN)CC(N)C(OC3OC(CN)C(O)C(O)C3O)C2O)C(O)C(N)C1O (stereo not shown) [IBIS00561983, 6″-deoxy-6″-dimethylaminoethylamino-N-1-(4-amino-2-S-hydroxybutyryl)kanamycin A] | 1.25-2.5 | 1.25-2.5
14 | NCC[C@H](O)C(=O)N[C@@H]1C[C@H](N)[C@@H](O[C@H]2O[C@H](CN)[C@@H](O)[C@H](O)[C@H]2O)[C@H](O)[C@H]1O[C@H]1O[C@H](CNCCNCc2ccccc2)[C@@H](O)[C@H](N)[C@H]1O [IBIS00561984, 6″-deoxy-6″-benzylaminoethylamino-N-1-(4-amino-2-S-hydroxybutyryl)kanamycin A] | 5.0-10.0 | 5.0-10.0
